# Results from US4103082A, “Aminocyclitol derivatives and process for producing the same” (priority 1975, dated 1978).
# Tests used:
# [1] = tested on: Bacillus subtilis ATCC 6633; test: paper disk method, inhibitory zone diameter; assay type: cell-based; details: read-out: inhibitory zone diameter
# E. coli K-12 = test: paper disk method, inhibitory zone diameter; assay type: cell-based; details: Escherichia coli, K12, read-out: inhibitory zone diameter
# [2] = tested on: E. coli HL-1629 (Kanamycin-resistant strain); test: microbe, parasite or virus in culture; assay type: cell-based; details: Escherichia coli, read-out: inhibitory zone diameter
# Klebsiella 6 = test: paper disk method, inhibitory zone diameter; assay type: cell-based; details: Klebsiella, 6; 2000 γ/ml; read-out: inhibitory zone diameter
# Klebsiella 7 = test: paper disk method, inhibitory zone diameter; assay type: cell-based; details: Klebsiella, 7; 2000 γ/ml; read-out: inhibitory zone diameter
# Mycobacterium 607 = test: paper disk method, inhibitory zone diameter; assay type: cell-based; details: Mycobacterium, 607, read-out: inhibitory zone diameter
# Pseudomonas 1007 = test: paper disk method, inhibitory zone diameter; assay type: cell-based; details: Pseudomonas, 1007; 2000 γ/ml; read-out: inhibitory zone diameter
# [3] = tested on: Staphylococcus aureus 209P JC-1; test: antibacterial activity (Minimum Inhibitory Concentration); assay type: cell-based; details: Staphylococcus aureus 209P JC-1; read-out: MIC
# [4] = tested on: Staphylococcus aureus Smith S-424; test: as above; assay type: cell-based; details: SMITHS424; Staphylococcus aureus Smith S-424; read-out: MIC
# [5] = tested on: Staphylococcus aureus No. 26; test: as above; assay type: cell-based; details: Staphylococcus aureus, NO.26
# [6] = tested on: Staphylococcus aureus C73-4; test: as above; assay type: cell-based; details: Staphylococcus aureus, C734
# [7] = tested on: Staphylococcus aureus C73-10; test: as above; assay type: cell-based; details: Staphylococcus aureus, C7310
# [8] = tested on: Staphylococcus aureus C73-21; test: as above; assay type: cell-based; details: C7321; Staphylococcus aureus C73-21; read-out: MIC
# [9] = tested on: Staphylococcus albus PCI-1200A; test: as above; assay type: cell-based; details: PCI1200A; Staphylococcus albus PCI-1200A; read-out: MIC
# [10] = tested on: Bacillus subtilis ATCC 6633; test: as above; assay type: cell-based; details: ATCC6633; Bacillus subtilis ATCC 6633; read-out: MIC
# [11] = tested on: Bacillus anthracis No. 119; test: microbe, parasite or virus in culture; assay type: cell-based
# E. coli C73-1 = test: antibacterial activity (Minimum Inhibitory Concentration); assay type: cell-based; details: Escherichia coli, C731; E. coli C73-1; read-out: MIC
# E. coli C73-4 = test: as above; assay type: cell-based; details: Escherichia coli, C734; E. coli C73-4; read-out: MIC
# E. coli C73-12 = test: as above; assay type: cell-based; details: Escherichia coli, C7312
# [12] = tested on: Salmonella species C73-30; test: as above; assay type: cell-based; details: C7330
# [13] = tested on: Shigella dysenteriae Shigae; test: microbe, parasite or virus in culture; assay type: cell-based
# Klebsiella pneumoniae = test: antibacterial activity (Minimum Inhibitory Concentration); assay type: cell-based
# Proteus morganii Kono = test: as above; assay type: cell-based; details: Morganella morganii
# Proteus species C73-23 = test: as above; assay type: cell-based; details: Proteus species C73-23; read-out: MIC
# Proteus species C73-25 = test: as above; assay type: cell-based; details: Proteus species C73-25; read-out: MIC
# Proteus species C73-33 = test: as above; assay type: cell-based; details: Proteus species C73-33; read-out: MIC
# Proteus species C73-34 = test: as above; assay type: cell-based; details: Proteus species C73-34; read-out: MIC
# [14] = tested on: Enterococcus species C73-33; test: as above; assay type: cell-based; details: Enterococcus, C7333
# [15] = tested on: Enterococcus species C73-17; test: as above; assay type: cell-based; details: Enterococcus, C7317
# [16] = tested on: Vibrio parahaemolyticus K-3; test: as above; assay type: cell-based; details: K3; Vibrio parahaemolyticus K-3; read-out: MIC
# [17] = tested on: Vibrio parahaemolyticus K-5; test: as above; assay type: cell-based; details: K5; Vibrio parahaemolyticus K-5; read-out: MIC
# [18] = tested on: Vibrio parahaemolyticus K-7; test: as above; assay type: cell-based; details: K7; Vibrio parahaemolyticus K-7; read-out: MIC
# microorganisms indicated = test: antimicrobial activities, paper disk method (general statement); assay type: cell-based; details: Tables 1 to 4
# Description: The inhibitory activities were determined at various concentrations of the compounds using the paper disk method against the microorganisms indicated and the numerical values show the inhibitory zone diameter in terms of mm.
# male ICR mice = test: acute toxicity; details: intravenous administration, 200 mg/kg
structure (smiles),measurement,setting,value
"NC[C@H]1O[C@H](O[C@H]2C[C@@H](O)[C@H](N)C[C@@H]2N)[C@H](N)[C@@H](O)[C@@H]1O [5-Deoxyneamine, 5-deoxyneamine]",zone of inhibition at 7.8 µg/mL,"[1]; ATCC6633, 7.8 γ/ml",11.2 mm
same,zone of inhibition at 15.6 µg/mL,"[1]; ATCC6633, 15.6 γ/ml",13.8 mm
same,zone of inhibition at 31.2 µg/mL,"[1]; ATCC6633, 31.2 γ/ml",15.7 mm
same,zone of inhibition at 62.5 µg/mL,"[1]; ATCC6633, 62.5 γ/ml",20.5 mm
same,zone of inhibition at 125 µg/mL,"[1]; ATCC6633, 125 γ/ml",23.2 mm
same,zone of inhibition at 250 µg/mL,"[1]; ATCC6633, 250 γ/ml",25.6 mm
same,zone of inhibition at 500 µg/mL,"[1]; ATCC6633, 500 γ/ml",28.3 mm
same,zone of inhibition at 1000 µg/mL,"[1]; ATCC6633, 1000 γ/ml",30.8 mm
same,zone of inhibition at 2000 µg/mL,"[1]; ATCC6633, 2000 γ/ml",33.4 mm
same,zone of inhibition at 7.8 µg/mL,E. coli K-12; 7.8 γ/ml,0 mm
same,zone of inhibition at 15.6 µg/mL,E. coli K-12; 15.6 γ/ml,0 mm
same,zone of inhibition at 31.2 µg/mL,E. coli K-12; 31.2 γ/ml,12.1 mm
same,zone of inhibition at 62.5 µg/mL,E. coli K-12; 62.5 γ/ml,14.7 mm
same,zone of inhibition at 125 µg/mL,E. coli K-12; 125 γ/ml,17.2 mm
same,zone of inhibition at 250 µg/mL,E. coli K-12; 250 γ/ml,18.7 mm
same,zone of inhibition at 500 µg/mL,E. coli K-12; 500 γ/ml,22 mm
same,zone of inhibition at 1000 µg/mL,E. coli K-12; 1000 γ/ml,24.5 mm
same,zone of inhibition at 2000 µg/mL,E. coli K-12; 2000 γ/ml,26.6 mm
same,zone of inhibition at 1000 µg/mL,[2],0 mm
same,zone of inhibition at 2000 µg/mL,[2],13.9 mm
same,zone of inhibition at 2000 µg/mL,Klebsiella 6,0 mm
same,zone of inhibition at 2000 µg/mL,Klebsiella 7,0 mm
same,zone of inhibition at 62.5 µg/mL,Mycobacterium 607; 62.5 γ/ml,0 mm
same,zone of inhibition at 125 µg/mL,Mycobacterium 607; 125 γ/ml,0 mm
same,zone of inhibition at 250 µg/mL,Mycobacterium 607; 250 γ/ml,10.4 mm
same,zone of inhibition at 500 µg/mL,Mycobacterium 607; 500 γ/ml,16.4 mm
same,zone of inhibition at 1000 µg/mL,Mycobacterium 607; 1000 γ/ml,22 mm
same,zone of inhibition at 2000 µg/mL,Mycobacterium 607; 2000 γ/ml,26.8 mm
same,zone of inhibition at 2000 µg/mL,Pseudomonas 1007,0 mm
same,MIC,[3],0.39 µg/mL
same,MIC,[4],0.78 µg/mL
same,MIC,[5],1.56 µg/mL
same,MIC,[6],1.56 µg/mL
same,MIC,[7],1.56 µg/mL
same,MIC,[8],0.2 µg/mL
same,MIC,[9],0.2 µg/mL
same,MIC,[10],0.39 µg/mL
same,MIC,[11],1.56 µg/mL
same,MIC,E. coli C73-1,12.5 µg/mL
same,MIC,E. coli C73-4,12.5 µg/mL
same,MIC,E. coli C73-12,6.25 µg/mL
same,MIC,[12],12.5 µg/mL
same,MIC,[13],6.25 µg/mL
same,MIC,Klebsiella pneumoniae,6.25 µg/mL
same,MIC,Proteus morganii Kono,6.25 µg/mL
same,MIC,Proteus species C73-23,12.5 µg/mL
same,MIC,Proteus species C73-25,3.13 µg/mL
same,MIC,Proteus species C73-33,50 µg/mL
same,MIC,Proteus species C73-34,12.5 µg/mL
same,MIC,[14],6.25 µg/mL
same,MIC,[15],6.25 µg/mL
same,MIC,[16],0.39 µg/mL
same,MIC,[17],12.5 µg/mL
same,MIC,[18],12.5 µg/mL
same,antimicrobial activities relative to neamine,microorganisms indicated,superior to those of the parent compound neamine
same,"acute toxicity, survival",male ICR mice,all male ICR mice were survived
